For data set [1], the system named is B35 rat neuroblastoma cells. The experiment in a line: Lactate dehydrogenase (LDH) assay, cell toxicity. In kind it is cell-based. As to conditions: 5 hours, concentration given in the value. As for the experimental part:
(§1) Rat neuroblastoma B35 cells were grown in Dulbecco's Modified Eagle's Medium (DMEM) with 10% Fetal Bovine Serum (FBS) and 1% penicillin/streptomycin and incubated at 37° C. with 5% CO2. For the experiments, cells were transferred to 12-well plates (Cat. #150628, ThermoFisher, Waltham, Mass.) and grown to at least 70% confluence. Transient transfection was performed with 3pg P301L tau (Cat. #30145, Addgene) cDNA or 3pg human a-synuclein cDNA using Fugene HD transfection reagent (Cat. #E2311, Promega, Madison Wis.) for 24 hours. Cells were treated with ImM, I00pM, 10pM, IpM, 0.lIM, 0.01pMl, and 0.001pM dissolved in DMSO or an equivalent SuL of DMSO for 5 hours. Cell culture media was collected and cells were harvested using sodium-tris, EDTA, NP-40 (STEN) buffer and centrifuged at 10,000×g for 20 minutes at 4′C and supernatant was collected. Cell viability was determined via lactate dehydrogenase assay (Cat. #88954, Thermofisher) and MTT assay (Cat. #V13154, Thennofisher). Protein was extracted by removing culture medium and adding 0.2 ml lx STEN buffer (50 mM Tris (pH 7.6), 150 mM NaCl, 2 mM EDTA, 0.2% NP-40, 0.2% BSA, 20 mM PMSF and protease cocktail inhibitor) to cell layer and incubated on ice for 10 minutes. The bottom of the well was scraped and allowed to incubate on ice for an additional 10 minutes. Cell lysates were collected, stored at -80° C., and used for additional analyses.
(§2) Compound 1 (BK5018), Compound 2 (BK5026), Compound 3 (BK5029), Compound 4 (BD5040), Compound 6 (CL2-296). Compound 7 (CL-2-287-1) and Compound 8 (CL-2-287-2) with molecular weights of 284, 339.265, 264, 339, 269 and 247 gimol, respectively, were diluted in Dimethyl Sulfoxide (DMSO) to final concentrations of 100 pM, 10 µM, 1 pM, 0.1 pM, 0.01 pM, and 0.001 pM. Drugs were stored at −80° C.
Cellular cytotoxicity was quantitatively measured by assessment of LDH, a cytosolic enzyme that is released from damaged cells into the cellular media, after exposure to the drug 5 hours after initial dosage. The cell culture media was collected, and an aliquot was coupled with a lactate and NAD+. LDH catalyzes the reaction that converts lactate into pyruvate to produce NADH. NADH, in turn, reduces a tetrazolium salt (NT) into a red fornazan product. The amount of LDH in the media is proportional to the amount of formazan which was measured at 490 nn. The absorbance at 680 nm, to measure the background signal from the instrument, was subtracted from the absorbance at 490 nm to calculate the LDH activity. CelfCulture

Data set [2] deals with alpha-synuclein in a-synuclein-transfected B35 rat neuroblastoma cells. In words: Reduction of alpha-synuclein in a-synuclein-transfected B35 cells. In kind it is cell-based, rat cells transfected with human a-synuclein cDNA. As to conditions: treatment for five hours with 100aM, lOuM and luM concentrations. As to the method: as §1
To perform transient transfection of a-synuclein into the rat neuroblastoma B35 cells FuGene@ HD Transfection Reagent (Promega Corporation, Madison, Wis.) was used. Cells were grown in 12-well dishes. A mixture containing 12 pg of cDNA, 540 pg of DMEM containing 2% FBS, and 60 pd of FuGene@ HD Transfection Reagent was incubated for 10 minutes. The cells were treated with 50 pl of the FuGeneC HD Transfection Reagent/DNA mixture for 24 hours. Cells were harvested after transfection, media was aspirated, the cells were treated with 200ul of Sodium Tris EDTA NP40 (STEN) lysis buffer then scraped off the plate and collected into a 1.5 ml centrifiuge tube.

Data set [3] has as its system B35 rat neuroblastoma cells. In words: MTT assay, cell viability. It counts as cell-based. As to conditions: 5 hours, concentration given in the value. As for the experimental part: as §1, §2
To measure cell viability, cells were incubated with 500 pL of Dulbecco's Modified Eagle's Medium (DMEf) containing 50 pL of (3-[4,5-dimethylthiazol-2-yl]-2,5-diphenyl-tetrazolium bromide (ivT)) for 5 hours at 37° C. and 5% CO2. The media was aspirated so that 125 uL of media remained. The formazan salts were dissolved in 250 uL of DMSO. Absorbance was read against a blank containing 125 uL of media and MTT, and 250 uL of DMSO at 570 mn.
(Tetrazolium assays rely on reduction of a dye to a coloured formazan, in cell work by metabolically active cells.)

A further data set deals with murine Tau. The experiment in a line: Tau ELISA of whole brain lysates from A53T mice. It counts as in vivo, mouse (A53T). As to conditions: 21 days, 12 month old A53T mice.
Data set [4] relates to Tauopathy rTG4510 mice expressing human P301L tau. In words: Overnight nest shredding (nesting) behavior. It counts as in vivo, mouse. As to conditions: 10 mg/kg, 3 weeks, vs DMSO (Kruskal-Wallis P=0.01), rTG4510 mice. As for the experimental part: Tauopathy rTG4510 mice (i.e., a mouse model that clinically manifest a tauopathy), expressing human P301L tau driven by a CAMrII promoter, approximately 9-12 months old, were treated intraperitoneally (I.P.) for 21 consecutive days, […], or Dimethyl sulfoxide (DMSO) (n=7).
Then, blinded, independent observers reviewed images of the overnight shredding and the average quality scores were calculated.
For nest shredding, Mann-Whitney analysis was used within groups, between timepoints, and Kruskal-Wallis analysis was used between treatment groups. For open-field studies, : ordinary one-way ANOVA or Student's I test was used. […]
Blinded independent observers reviewed images of the overnight shredding and the average quality scores were calculated.

[5] abbreviates: 2.5 mg/kg, 5 mg/kg and 10 mg/kg I.P.

Several values for one entry are separate records, joined by “and”; a condition that tells them apart may be missing. Equal entries are not always repeated. Entries after “also recorded” stand apart in the source; their conditions may differ.

For the compound `COc1ccc2nccc(Nc3cccc(C)c3)c2c1` [BK5030, 6-Methoxy-N-(m-toIyl)quinolin-4-amine], the “cell toxicity, as measured by LDH assay” value in data set [1] is given as “no concentration of BK5030 displayed increased toxicity”. The level of alpha-synuclein result in data set [2] is on record as “none of the compounds significantly reduced the level of alpha-synuclein; also recorded: do not significantly reduce”. Besides, the “cell toxicity, as measured by MTT assay” value in data set [3] is given as “no concentration of BK5030 displayed increased toxicity”.

As for `Cc1cccc(Nc2ccc3c(Nc4cccc(C)c4)nccc3c2)c1` [CL2-296, N^4,N^6—Di-m-tolylisoquinoline-1,6-diamine], in data set [1], the “cell toxicity, as measured by LDH assay” value was 100 uM and IOuM concentrations of CL2-296 displayed decreased levels of LDH and no other concentration of CL2-296 displayed increased cell toxicity and 100luM and 10 uM concentrations of CL2-296 displayed decreased levels of LDH. Also, in data set [2], the level of alpha-synuclein result is reported as “none of the compounds significantly reduced the level of alpha-synuclein; also recorded: do not significantly reduce”. Also, the “cell toxicity, as measured by MTT assay” value in data set [3] was “no concentration of CL2-296 displayed increased cell toxicity”. The “murine Tau in whole brain lysates” value in the data set on murine Tau (setting [5]) is “significant reduction”.

For the compound `COc1ccc2nccc(Oc3ccc(C)cc3)c2c1` [BK5029, 6-Methoxy-4-(p-tolyloxy)quinoUne], the “cell toxicity, as measured by LDH assay” value in data set [1] was “low doses of BK5029 displayed increased toxicity”. Further, the level of alpha-synuclein entry in data set [2] is listed as “none of the compounds significantly reduced the level of alpha-synuclein; also recorded: do not significantly reduce”. For the same compound, the “cell toxicity, as measured by MTT assay” value in data set [3] is reported as “low doses of BK5029 displayed increased toxicity”. In the data set with murine Tau (setting [5]), the “murine Tau in whole brain lysates” value is reported as “significant reduction”.

Take `CC(C)(C)c1ccccc1Nc1ccccc1C(=O)O` [CL-2-287-1, 2-((2-(tert-Buty)phenyl)amino)benzoic adid]: the “cell toxicity, as measured by LDH assay” value in data set [1] was “at 100 uM or less did not show increased cell toxicity”. Moreover, the “cell toxicity, as measured by MTT assay” value in data set [3] is recorded as “at 100lM or less did not show increased cell toxicity”. The “nesting mean difference scores” value in data set [4] (listed as CL287-1) is “significantly different”; in data set [4] (listed as CL-287-1) it was “significantly improved nesting behavior”.

For `COc1cccc(Nc2ccnc3cc(Cl)ccc23)c1` [BK5018, 7-Chloro-N-(3-methoxyphenyl)quinoin-4-amine], in data set [1], the “cell toxicity, as measured by LDH assay” value was 100aM and luM of BK5018 displayed increased levels of LDH and 100 uM and luM of BK5018 displayed increased toxicity. In addition, the “cell toxicity, as measured by MTT assay” value in data set [3] is listed as “no concentration of BK5018 displayed increased toxicity”. Also, the “murine Tau in whole brain lysates” value with murine Tau (2.5 mg/kg and 10 mg/kg I.P.) is on record as “significant reduction”.

Take `Cc1cccc(Nc2cc(Nc3cccc(C)c3)c3ccccc3n2)c1` [BK5026, N^2,N^4-Di-m-tolyquinoline-2,4-diamine]: the “cell toxicity, as measured by LDH assay” value in data set [1] was “lOOuM and 1OuM concentrations of BK5026 displayed increased levels of cell toxicity and 100 uM”. In data set [3], the “cell toxicity, as measured by MTT assay” value is listed as “OOuM concentrations ofBK5026 displayed increased levels of cell toxicity”.
